Measured values from paper PMC9908594, “Biochemical characterization and identification of ferulenol and embelin as potent inhibitors of malate:quinone oxidoreductase from Campylobacter jejuni” (Frontiers in Molecular Biosciences, 2023).
“And” between values parts separate entries of the source, which are not always exact repeats. Equal entries are not always repeated. Where two headings read alike, the source gives them in different places.

How the values were obtained:
CjMQO [1] = target: T1, CjMQO (Campylobacter jejuni, UniProt P56954); assay: Steady-state kinetics of purified CjMQO for substrates; format: biochemical; conditions: for V max / k cat / k cat /K m / K m for ubiquinone: UQ varied, malate fixed 10 mM; for K m for ubiquinone: pH 7.0, 37°C; for K m for malate: malate varied
Method: (§1) The steady-state kinetic parameters of CjMQO were determined for malate and ubiquinone (UQ) with different side chain length (UQ0, UQ1, UQ2, UQ4, and dUQ; Supplementary Figure S3). The reaction mixture contained UQ, 1% (v/v) ethanol, 50 mM MOPS, 1 mM KCN and 0.2 μg/mL of purified CjMQO at the optimal pH (pH 7.0) and physiological temperature (37°C). The reduction of quinones was measured through the decrease in the absorbance at 278 nm ( ε278= 15 mM^-1 cm^-1). The Michaelis constant (K m) and maximum velocity (V max) of CjMQO for UQs were determined by varying the concentrations of UQs from 0.1 to 100 μM with the malate concentration fixed at 10 mM.
(§2) Next, K m and V max of CjMQO for malate were determined by varying the concentrations from 0.5 to 50 mM at fixed concentrations of different UQs (100 μM for UQ0 and UQ1 and 10 μM for dUQ and UQ2). The apparent steady-state kinetic parameters were calculated by Michaelis-Menten equation using GraphPad Prism software (ver. 9.3.1, GraphPad Software, Inc., San Diego, California, United States). Following the protocol previously described for TgMQO ([Acharjee et al., 2021]), the reaction mechanism of CjMQO was analysed using malate and UQ1 as substrates. Briefly, CjMQO activity was measured at different UQ1 concentrations (2, 5, 10, 20, and 50 μM) with malate concentrations fixed at 0.5, 2, and 5 mM; the data were then analysed using a double reciprocal plot (Lineweaver-Burk plot) produced by utilizing intercept and slope calculated from steady-state kinetics parameters obtained by fitting the data to Michalis-Menten equation with GraphPad Prism software. The type of reaction mechanism was determined based on the characteristics of the lines plotted in the double reciprocal plot.

TgMQO [2] = system: TgMQO; set-up: method as in Acharjee et al., 2021; conditions: ref Acharjee et al., 2021, cited from earlier work
[3] = target: CjMQO (malate:quinone oxidoreductase from C. jejuni) (Campylobacter jejuni, UniProt P56954); assay: biochemical; format: biochemical; conditions: 50 mM MOPS pH 7.0, 100 μM UQ1, 1 mM KCN, 0.2 μg/mL CjMQO, 10 mM malate; read-out: IC50 on purified CjMQO
C. jejuni ATCC29428 = assay: C. jejuni growth inhibition, resazurin assay; format: cell-based, Campylobacter jejuni; conditions: Mueller Hinton broth, 24 h, microaerophilic, 37°C, resazurin
CjMQO [4] = target: T1, CjMQO; assay: Inhibition mechanism of CjMQO (mixed-model fit, Lineweaver-Burk); format: biochemical
Method: The inhibition mechanism of the two compounds were investigated as described in a previous study ([Acharjee et al., 2021]). First, the inhibition mechanism versus UQ1 was assayed separately in a reaction mixture containing 50 mM MOPS pH 7.0, 1 mM KCN and 0.2 μg/mL of purified CjMQO containing a range of different ferulenol (0, 0.01, 0.02, and 0.04 μM) and embelin (0, 0.05, 0.1, and 0.15 μM) concentrations. Enzyme activity was measured at varying concentrations of UQ1 (5, 10, 20, 50, and 100 μM) and the reaction was initiated with 10 mM malate. Second, the inhibition mechanism versus malate was determined at 50 μM of UQ1, and the reaction was initiated with varying concentrations of malate (5, 10, 15, and 20 mM) and monitored at 278 nm, in singlets. The steady-state kinetics parameters, in the presence of inhibitors, were used to produce the Lineweaver-Burk plot. Next, the data were fitted to a mixed-type inhibition equation by a nonlinear-regression method using GraphPad Prism software. The intercept and slope from the primary plot (Lineweaver-Burk plot), were replotted as a function of the inhibitor. Finally, additional analysis was performed based on Dixon and Cornish Bowden plots in addition to the plot of Lineweaver-Burk to differentiate the types of inhibition mechanisms.

[5] = target: PfMQO (P. falciparum MQO) (Plasmodium falciparum, UniProt C6KT09); set-up: method as in Hartuti et al., 2018; conditions: previously reported; ref Hartuti et al., 2018; cited from earlier work
TgMQO [6] = system: TgMQO; set-up: method as in Acharjee et al., 2021; conditions: previously reported; ref Acharjee et al., 2021; cited from earlier work
[7] = system: DLD-1 (colon cancer-derived); set-up: method as in Hartuti et al., 2018; conditions: ref Hartuti et al., 2018, read-out: Cytotoxicity IC50; cited from earlier work
[8] = system: Panc-1 (pancreatic cancer-derived); set-up: method as in Hartuti et al., 2018; conditions: ref Hartuti et al., 2018, read-out: Cytotoxicity IC50; cited from earlier work
human dermal fibroblast = system: human dermal fibroblast; set-up: method as in Hartuti et al., 2018; conditions: ref Hartuti et al., 2018, read-out: Cytotoxicity IC50; cited from earlier work
PfMQO = system: PfMQO; set-up: method as in Hartuti et al., 2018; conditions: for dUQ; ref Hartuti et al., 2018; cited from earlier work
[9] = substrate: CCCCCCCCCCC1=C(C)C(=O)C(OC)=C(OC)C1=O; assay: Steady-state kinetics of purified CjMQO for substrates; format: biochemical; conditions: other: UQ varied, malate fixed 10 mM; pH 7.0; 37.0 °C
Method: as §1, §2

[10] = substrate: COC1=C(OC)C(=O)C(CC=C(C)C)=C(C)C1=O; assay: as above; format: biochemical; conditions: pH 7.0, 37.0 °C
Method: as §1, §2

[11] = substrate: O=C(O)CC(O)C(=O)O; assay: as above; format: biochemical; conditions: other: malate varied, pH 7.0, 37.0 °C
Method: as §1, §2

[12] = other: UQ varied, malate fixed 10 mM

PfMQO (P. falciparum MQO), sequence (C6KT09 entry or part of it): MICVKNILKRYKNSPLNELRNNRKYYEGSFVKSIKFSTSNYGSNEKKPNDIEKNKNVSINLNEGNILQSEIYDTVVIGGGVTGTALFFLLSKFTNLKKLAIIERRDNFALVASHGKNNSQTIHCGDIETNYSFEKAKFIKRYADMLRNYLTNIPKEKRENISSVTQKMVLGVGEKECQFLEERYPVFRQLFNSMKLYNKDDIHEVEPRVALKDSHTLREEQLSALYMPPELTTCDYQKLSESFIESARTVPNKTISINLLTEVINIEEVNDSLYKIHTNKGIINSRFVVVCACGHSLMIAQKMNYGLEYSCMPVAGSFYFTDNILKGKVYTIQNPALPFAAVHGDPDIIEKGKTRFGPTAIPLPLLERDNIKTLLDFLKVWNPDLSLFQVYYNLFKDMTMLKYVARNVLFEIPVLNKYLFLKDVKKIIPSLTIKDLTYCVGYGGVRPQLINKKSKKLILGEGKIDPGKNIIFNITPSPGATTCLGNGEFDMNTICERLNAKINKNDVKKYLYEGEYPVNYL

COC1=C(OC)C(=O)C(C/C=C(\C)CC/C=C(\C)CC/C=C(\C)CCC=C(C)C)=C(C)C1=O [UQ4]
V max (CjMQO [1]): 10 µmol/min/mg and 10.0 ± 1.0 µmol/min/mg
k cat (CjMQO [1]): 43.9 ± 11.4 s⁻¹
k cat /K m (CjMQO [1]): 5.3e+07 M⁻¹ s⁻¹
K m for ubiquinone (CjMQO [1]): 0.8 µM and 0.80 ± 0.2 µM
Concentration above which substrate inhibition was observed (CjMQO [1]; possibly due to low solubility in the assay condition): > 2 µM

CCCCCCCCCCC1=C(C)C(=O)C(OC)=C(OC)C1=O [dUQ, decylubiquinone]
K m for ubiquinone (CjMQO [1]): 8.5 µM and 8.50 ± 2.0 µM
K m of TgMQO for ubiquinone (TgMQO [2]): 17 µM
V max of TgMQO for ubiquinone (TgMQO [2]): 12 µmol/min/mg

CC(C)=CCC/C(C)=C/CC/C(C)=C/Cc1c(O)c2ccccc2oc1=O [Ferulenol, ferulenol]
IC50 [3]: 18 nM
IC50 (C. jejuni ATCC29428): 600 nM
K m (apparent, mixed-model fit) (CjMQO [4]; UQ1 varied, malate fixed): 42 ± 5 µM
V max (apparent, mixed-model fit) (CjMQO [4]; UQ1 varied, malate fixed): 133 ± 7 µmol/min/mg
α versus UQ1 (quinone) (CjMQO [4]; UQ1 varied, malate fixed): 1.04
K i versus UQ1 (CjMQO [4]; UQ1 varied, malate fixed (10 mM)): 20 nM
Inhibition type versus UQ1 (quinone) (CjMQO [4]; UQ1 varied, malate fixed, NC: noncompetitive): noncompetitive
Inhibition type versus malate (CjMQO [4]; malate varied, UQ1 fixed): Mixed
K m (apparent, mixed-model fit) (CjMQO [4]; malate varied, UQ1 fixed): 1,845 ± 201 μM
V max (apparent, mixed-model fit) (CjMQO [4]; malate varied, UQ1 fixed): 70 ± 2 µmol/min/mg
α versus malate (CjMQO [4]; malate varied, UQ1 fixed): 2.66
K i versus malate (CjMQO [4]; malate varied, UQ1 fixed (50 μM)): 10 nM
Inhibition type versus malate (CjMQO [4]; malate varied, UQ1 fixed, listed as ferulenol): mixed-type
IC50 [5]: 57 nM
IC50 (TgMQO [6]): 822 nM
IC50 [7]: 50100 nM
IC50 [8]: 50200 nM
IC50 (human dermal fibroblast): 65800 nM

COC1=C(OC)C(=O)C(C)=CC1=O [UQ0]
V max (CjMQO [1]): 49 µmol/min/mg and 49.0 ± 2.4 µmol/min/mg
k cat (CjMQO [1]): 219 ± 13.1 s⁻¹
k cat /K m (CjMQO [1]): 1.3e+06 M⁻¹ s⁻¹
K m for ubiquinone (CjMQO [1]): 168 µM and 168 ± 12.0 µM
K m of TgMQO for ubiquinone (TgMQO [2]): 225 µM
V max of TgMQO for ubiquinone (TgMQO [2]): 13 µmol/min/mg

COC1=C(OC)C(=O)C(C/C=C(\C)CCC=C(C)C)=C(C)C1=O [UQ2]
V max (CjMQO [1]): 108 µmol/min/mg and 108 ± 10 µmol/min/mg
k cat (CjMQO [1]): 485 ± 42.0 s⁻¹
k cat /K m (CjMQO [1]): 1.07e+08 M⁻¹ s⁻¹
K m for ubiquinone (CjMQO [1]): 4.6 µM and 4.60 ± 1.0 µM

COC1=C(OC)C(=O)C(CC=C(C)C)=C(C)C1=O [UQ1]
K m for ubiquinone (CjMQO [1]): 46 µM and 46.0 ± 3.1 µM
K m of TgMQO for ubiquinone (TgMQO [2]): 116 µM
V max of TgMQO for ubiquinone (TgMQO [2]): 44 µmol/min/mg

O=C(O)CC(O)C(=O)O (stereo not drawn) [Malate, sodium malate]
K m for malate (CjMQO [1]; UQ0 fixed (100 μM)): 298 ± 18 µM
K m for malate (CjMQO [1]; UQ0 fixed (100 μM), listed as malate): 298 µM
K m for malate (CjMQO [1]; UQ1 fixed (100 μM)): 882 ± 49 µM
K m for malate (CjMQO [1]; UQ1 fixed (100 μM), listed as malate): 882 µM
K m for malate (CjMQO [1]; UQ2 fixed (10 μM)): 1,031 ± 93 μM
K m for malate (CjMQO [1]; UQ2 fixed (10 μM), listed as malate): 1,031 μM
K m for malate (CjMQO [1]; dUQ fixed (10 μM)): 1,209 ± 160 μM
K m for malate (CjMQO [1]; dUQ fixed (10 μM), listed as malate): 1,209 μM
K m of TgMQO for malate (TgMQO [2]; in the presence of UQ1): 370 µM
K m of TgMQO for malate (TgMQO [2]; in the presence of UQ2): 637 µM
K m of TgMQO for malate (TgMQO [2]; in the presence of dUQ): 466 µM
K m of PfMQO for malate (PfMQO): 5,990 μM

B1: CjMQO (Campylobacter jejuni subsp. jejuni NCTC 11168 = ATCC 700819) (protein)
chain: MSQQEFDVLVIGAGISGAALFYELARYTNIKNIALIEKYNTAATLNSKGTSNSQTIHCGDIETNYTLEKARKVKRTADMIVKYGLMQNAQNNFMFSHQKMALAVGDIECDYMKKRYEEFKELYPYIKFFDKAKIKQIEPKVVLGEDCNQDRPENICAMGVESGEVFTTVDFGKMSINLIEQAQKQNKNTFVAFNQEIIHIEKKDDIFILKTSNHQEYHAKSVVVNAGAHSLYLAHKMNLGMDKSCWPVAGSFYLTKQKLLNGKVYMVQNPKLPFAALHGDPDLLADMNTRFGPTALVIPKLERYHGLKSVPEFFEALKLDKTVLKVTFNMFKDATIRNYIFYNYLFELPFVDKSLFVKDAKKIVPSLKASDIYYAKGFGGVRPQVIDKTKGELMLGEASITETPGIIFNMTPSPGATSCLGNAERDAKLVCNYLGMEFNEDKFSSELL
kcat [9]: 343 ± 40.4 s⁻¹
kcat/Km [9]: 4.02e+07 M⁻¹ s⁻¹
kcat [10, 12]: 480 ± 18.7 s⁻¹
kcat/Km [10, 12]: 1.05e+07 M⁻¹ s⁻¹
Km ([10]; other: malate fixed at 0.5 mM): 16.3 µM
Km ([10]; other: malate fixed at 2 mM): 23.8 µM
Km ([10]; other: malate fixed at 10 mM): 32.6 µM
kcat ([11]; UQ0 fixed (100 μM)): 67 ± 1.1 s⁻¹
kcat/Km ([11]; UQ0 fixed (100 μM)): 200000 M⁻¹ s⁻¹
kcat ([11]; UQ1 fixed (100 μM)): 502 ± 55.6 s⁻¹
kcat/Km ([11]; UQ1 fixed (100 μM)): 600000 M⁻¹ s⁻¹
kcat ([11]; UQ2 fixed (10 μM)): 389 ± 7.6 s⁻¹
kcat/Km ([11]; UQ2 fixed (10 μM)): 400000 M⁻¹ s⁻¹
kcat ([11]; dUQ fixed (10 μM)): 210 ± 19.2 s⁻¹
kcat/Km ([11]; dUQ fixed (10 μM)): 200000 M⁻¹ s⁻¹
